Test results reported in ChEMBL document CHEMBL2203217, “Prohormone-substrate peptide sequence recognition by peptidylglycine α-amidating monooxygenase and its reflection in increased glycolate inhibitor potency” (Bioorg Med Chem Lett, 2012).

Columns and labels:
[1] = target: T1, Peptidyl-glycine alpha-amidating monooxygenase (Homo sapiens, UniProt P19021); experiment: Competitive inhibition of secreted PAM in human DMS53 cell culture medium using as(R)-Tyr-(S)-Val-Gly as substrate after 2 hrs by HPLC analysis; set-up: species or system DMS-53
T1 sequence (P19021 whole entry): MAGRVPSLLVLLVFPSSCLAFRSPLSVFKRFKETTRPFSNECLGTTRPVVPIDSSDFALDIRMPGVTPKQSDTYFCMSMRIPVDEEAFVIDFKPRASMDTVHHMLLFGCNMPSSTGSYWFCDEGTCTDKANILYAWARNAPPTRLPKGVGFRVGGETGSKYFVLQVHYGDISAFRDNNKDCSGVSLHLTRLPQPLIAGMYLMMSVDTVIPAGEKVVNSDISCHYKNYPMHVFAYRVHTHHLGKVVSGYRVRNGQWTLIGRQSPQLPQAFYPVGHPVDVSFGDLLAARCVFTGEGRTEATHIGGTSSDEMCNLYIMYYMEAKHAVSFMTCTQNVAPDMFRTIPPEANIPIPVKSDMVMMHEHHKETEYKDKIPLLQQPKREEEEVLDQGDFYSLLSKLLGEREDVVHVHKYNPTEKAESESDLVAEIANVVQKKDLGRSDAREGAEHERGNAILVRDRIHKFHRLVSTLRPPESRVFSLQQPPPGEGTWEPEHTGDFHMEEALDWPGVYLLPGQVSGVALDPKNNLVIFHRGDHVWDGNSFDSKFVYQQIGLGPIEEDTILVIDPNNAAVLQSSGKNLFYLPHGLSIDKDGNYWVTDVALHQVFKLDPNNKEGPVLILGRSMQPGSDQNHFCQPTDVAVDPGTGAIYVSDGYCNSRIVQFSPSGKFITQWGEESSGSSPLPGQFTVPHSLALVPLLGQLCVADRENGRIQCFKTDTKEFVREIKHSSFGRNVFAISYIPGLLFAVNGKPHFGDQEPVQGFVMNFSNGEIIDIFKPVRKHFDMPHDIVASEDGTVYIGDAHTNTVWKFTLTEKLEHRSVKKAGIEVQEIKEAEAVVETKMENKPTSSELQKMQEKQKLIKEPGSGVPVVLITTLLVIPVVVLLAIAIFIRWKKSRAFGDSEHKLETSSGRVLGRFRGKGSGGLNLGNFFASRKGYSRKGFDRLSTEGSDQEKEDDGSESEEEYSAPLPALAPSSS

[2] = target: T1, Peptidyl-glycine alpha-amidating monooxygenase; experiment: Competitive inhibition of PAM in human DMS53 cells using as(R)-Tyr-(S)-Val-Gly as substrate after 2 hrs by HPLC analysis; type: cell-based, DMS-53

C[C@H](N)C(=O)N1CCC[C@H]1C(=O)OCC(=O)O
IC50 [1]: 290 µM | IC50 [2]: 370 µM
